Here are results for 1 compound from patent US20230144023A1, “USE OF BUTYLPHTHALIDE AND DERIVATIVE THEREOF” (CSPC NBP PHARMACEUTICAL CO., LTD, priority 2020, published 2023).

For the test, the system named is HT29. Description: In vitro tumor cell proliferation, MTT (Example 7). Particulars: Homo sapiens, HT-29, 72 h.

Read-outs that look alike come from different tables or passages of the source.

In general, inhibition refers to how much of the control response was suppressed.

Protocol: This experiment includes a monotherapy group of Bortezomib, a combined therapy group (Bortezomib/NBP), and a monotherapy group of NBP. Different drug concentration gradients were set for each group.
Monotherapy group of Bortezomib: (1) MM.1S, Jeko-1, and HT29 cells: Bortezomib was 1.5× serially diluted from an initial concentration of 20 nM to 8 concentrations: 20, 13.33, 8.89, 5.93, 3.95, 2.63, 1.76, and 1.17 nM, respectively; (2) A549 cells: Bortezomib was 2×serially diluted from an initial concentration of 200 nM to 8 concentrations: 200, 100, 50, 25, 12.5, 6.25, 3.13, and 1.56 nM, respectively; and (3) DU145 cells: Bortezomib was 2× serially diluted from an initial concentration of 100 nM to 8 concentrations: 100, 50, 25, 12.5, 6.25, 3.13, 1.56, and 0.78 nM, respectively.
Monotherapy group of NBP: NBP was 2× serially diluted from an initial concentration of 480 μM to 8 concentrations: 480, 240, 120, 60, 30, 15, 7.5, and 3.75 μM, respectively.
The action time of the drug was 72 h.
A certain number of conventionally cultured cells in logarithmic growth phase were inoculated in a 96-well plate with 100 μL per well. […] For adherent cells HT29, A549, and DU145, the above drugs were added 24 h after adherence. 3 replicate wells were set for each concentration of each drug, and blank wells (only culture medium was present, and no tumor cells were inoculated) and normal wells (a culture medium inoculated with tumor cells, drug concentration was 0) were set. The drugs functioned for 72 h, then MTT working solution (5 mg/mL) was added at 20 μL per well; after functioning at 37° C. for 4 h, the supernatant was removed, 150 μL of DMSO (analytically pure) was added; the mixture was fully mixed using a microplate oscillator, the plate was wiped clean, and the optical density (OD) at 550 nm was measured using a microplate reader.
The cell growth inhibition rate was computed using the following equation:
Inhibition rate (%)=(OD valuenormal well−OD valueadministration well)/(OD valuenormal well−OD valueblank well)×100%
Based on the inhibition rate of each concentration, the median inhibitory concentration IC50 of the drug was computed using SPSS19.0.

In the case of `CCCCC1OC(=O)c2ccccc21` (stereo not shown) [NBP, 3-n-butylphthalide], the inhibition at 30 µM (read-out: Inhibition rate, First dose) is 9.98%; the inhibition at 30 µM (read-out: Inhibition rate, Mean ± SD) came out at 10.7 ± 2.79%; the inhibition at 30 µM (read-out: Inhibition rate, Second dose) was determined as 8.27%; the inhibition at 30 µM (read-out: Inhibition rate, Third dose) came out at 13.7%.
